Data from US20020028940A1, “Indolyl-substituted phenylacetic acid derivatives” (priority 1995, published 2002).
Where two headings read alike, the source gives them in different places.

Key:
[1] = tested on: ApoB-100-associated lipoproteins; test: Inhibition of the release of ApoB-100-associated lipoproteins from hepatic cells (HepG2), LDL immunoassay; type: cell-based, human; settings: concentration at which adsorption of light (450 nm) is inhibited by 50% compared with solvent control
Method: 1. Inhibition of the release of ApoB-100-associated lipoproteins
The test for detection of the inhibition of the release of ApoB-100-associated lipoproteins from hepatic cells was carried out in vitro with cultured hepatic cells, preferably with cells of the human line HepG2. These cells are cultured under standard conditions in medium for culture of eukaryotic cells, preferably in RPM 1640 with 10% foetal calf serum. HepG2 cells synthesize and secrete into the culture supernatant ApoB-100-associated lipoprotein particles, which are in principle built up similarly to the VLDL and LDL particles which are to be found in plasma.
These particles can be detected with an immunoassay for human LDL. This immunoassay is carried out with antibodies which have been induced against human LDL in rabbits under standard conditions. The anti-LDL antibodies (rab-anti-LDL-Ab) were purified by affinity chromatography on an immunosorbent with human LDL. These purified rab-anti-LDL-Ab are adsorbed onto the surface of plastic. This adsorption is expediently carried out on the plastic surface of microtiter plates with 96 wells, preferably on MaxiSorp plates. If ApoB-100-associated particles are present in the supernatant of Hep-G2 cells, these can then bond to the insolubilized rab-anti-LDL-Ab, and an immune complex bonded to the plastic surface is formed. Non-bonded proteins are removed by washing. The immune complex on the plastic surface is detected with monoclonal antibodies, which have been induced against human LDL and purified under standard conditions. These antibodies were conjugated with the enzyme peroxidase. Peroxidase converts the colourless substrate TMB into a coloured product in the presence of H2O2. After acidification of the reaction mixture with H2SO4, the specific adsorption of light is determined at 450 nm, this being a measure of the amount of ApoB-100-associated particles which had been secreted by the HepG2 cells into the culture supernatant.
The IC50 value indicates the concentration of substance at which the adsorption of light is inhibited by 50% compared with the control (solvent control without the substance).

[2] = tested on: intestinal triglyceride absorption; test: Inhibition of intestinal triglyceride absorption in vivo (rats); design: species or system male Wistar rats; settings: fasting rats, postprandial serum triglyceride increase after tragacanth-olive oil loading
Method: 3. Inhibition of intestinal triglyceride absorption in vivo (rats)
The substances which are to be investigated in vivo for their inhibiting action on triglyceride absorption are administered orally to male Wistar rats having a body weight of between 170 and 230 g. For this purpose, the animals are divided into groups of 6 animals 18 hours before administration of the substance, and their food is then withdrawn. Drinking water is available to the animals ad libitum. The animals of the control groups are given an aqueous tragacanth suspension or a tragacanth suspension which comprises olive oil. The tragacanth-olive oil suspension is prepared with an Ultra-Turrax. The substances to be investigated are suspended in a corresponding tragacanth-olive oil suspension, likewise with an Ultra-Turrax, directly before administration of the substance.
Before administration by a stomach tube, blood is taken from each rat by puncture of the retroorbital venous plexus for determination of the basal serum triglyceride content. The tragacanth suspension, the tragacanth-olive oil suspensions without a substance (control animals) or the substances, suspended in a corresponding tragacanth-olive oil suspension, are then administered to the fasting animals using a stomach tube. Further blood for determination of the postprandial serum triglyceride increase is as a rule taken 1, 2 and 3 hours after the administration by a stomach tube.
The blood samples are centrifuged and, after isolation of the serum, the triglycerides are determined photometrically with an EPOS-Analyzer 5060 (Eppendorf Gerätebau, Netheler & Hinz GmbH, Hamburg). The triglycerides are determined completely enzymatically with a commercially available UV test.
The postprandial increase in serum triglycerides is determined by subtraction of the triglyceride prevalue of each animal from its corresponding postprandial triglyceride concentrations (1, 2 and 3 hours after administration).
The average is taken of the differences (in mmol/l) at each point in time (1, 2 and 3 hours) in the groups, and the means of the increase in serum triglycerides (ΔTG) of the animals treated with the substance are compared with the animals which received only the tragacanth-oil suspension.
The course of the serum triglycerides in the control animals, which were given only tragacanth, is also calculated. The effect of the substance at each point in time (1, 2 or 3 hours) is determined as follows and stated in Δ% of the oil-loaded control. [formula]
Effect of 10 mg of test substance/kg of body weight p.o. on the increase in triglycerides (Δ%) 2 hours after a triglyceride loading in the serum of fasting rats. The increase in serum triglycerides of fat-loaded control animals, based on the serum triglycerides level of tragacanth control animals, corresponds to 100%. n=6 animals per group.
The statistical analysis is carried out with the Student t-test after first checking the variances for homogeneity.

| Structure (SMILES) | IC50 [1] | ED50 ([2]; p.o.) | further results |
| --- | --- | --- | --- |
| Cc1cc2ccccc2n1Cc1ccc(C(C(=O)NC(CO)c2ccccc2)C2CCCCCC2)cc1 (mixture of isomers) [Example 4] | 40.5 nM | <10 mg/kg |  |
| Cc1c(C)n(Cc2ccc(C(C(=O)NC(CO)c3ccccc3)C3CCCC3)cc2)c2ccccc12 (mixture of isomers) [Example 5] | 83.2 nM |  |  |
| Cc1c(C)n(Cc2ccc(C(C(=O)NC(CO)c3ccccc3)C3CCCCC3)cc2)c2ccccc12 (mixture of isomers) [Example 8] | 50.5 nM |  |  |
| O=C(NC(CO)c1ccccc1)C(c1ccc(Cn2c(-c3ccccc3)cc3ccccc32)cc1)C1CCCCCC1 (mixture of isomers) [Example 16] | 35.9 nM | >2 mg/kg |  |
| CCOC(=O)c1cc2ccccc2n1Cc1ccc(C(C(=O)NC(CO)c2ccccc2)C2CCCC2)cc1 (mixture of isomers) [Example 17] | 38.1 nM |  |  |
| CCOC(=O)c1cc2ccccc2n1Cc1ccc(C(C(=O)NC(CO)c2ccccc2)C2CCCCCC2)cc1 (mixture of isomers) [Example 20] | 8.1 nM | >>10 mg/kg |  |
| CCOC(=O)c1cc2cc(OC)ccc2n1Cc1ccc(C(C(=O)NC(CO)c2ccccc2)C2CCCC2)cc1 (mixture of isomers) [Example 23] | 36.1 nM | 2 mg/kg |  |
| CCOC(=O)c1cc2cc(Cl)ccc2n1Cc1ccc(C(C(=O)NC(CO)c2ccccc2)C2CCCC2)cc1 (mixture of isomers) [Example 26] | 26.8 nM |  |  |
| Cc1cn(Cc2ccc(C(C(=O)NC(CO)c3ccccc3)C3CCCCCC3)cc2)c2ccccc12 (mixture of isomers) [Example 29] | 40.5 nM | 3 mg/kg |  |
| Cc1cccc2ccn(Cc3ccc(C(C(=O)NC(CO)c4ccccc4)C4CCCC4)cc3)c12 (mixture of isomers) [Example 31] | 428 nM |  |  |
| O=C(NC(CO)c1ccccc1)C(c1ccc(Cn2ccc3cc(Cl)ccc32)cc1)C1CCCCCC1 (mixture of isomers) [Example 32] | 48.5 nM |  |  |
| O=C(NC(CO)c1ccccc1)C(c1ccc(Cn2ccc3ccc(Cl)cc32)cc1)C1CCCC1 (mixture of isomers) [Example 33] | 41.1 nM |  |  |
| COc1cccc2c1ccn2Cc1ccc(C(C(=O)NC(CO)c2ccccc2)C2CCCC2)cc1 (mixture of isomers) [Example 36] | 72.5 nM |  |  |
| Cc1c(C)n(Cc2ccc(C(C(=O)NC(CO)c3ccccc3)C3CCCC3)cc2)c2ccccc12 (single isomer, unassigned) [Example 6] | 37.4 nM |  |  |
| Cc1c(C)n(Cc2ccc(C(C(=O)NC(CO)c3ccccc3)C3CCCC3)cc2)c2ccccc12 (single isomer, unassigned) [Example 7] | 229 nM |  |  |
| O=C(NC(CO)c1ccccc1)C(c1ccc(Cn2c(-c3ccccc3)cc3ccccc32)cc1)C1CCCC1 (single isomer, unassigned) [Example 14] | 474 nM |  |  |
| O=C(NC(CO)c1ccccc1)C(c1ccc(Cn2c(-c3ccccc3)cc3ccccc32)cc1)C1CCCC1 (single isomer, unassigned) [Example 15] | 47.3 nM |  |  |
| CCOC(=O)c1cc2ccccc2n1Cc1ccc(C(C(=O)NC(CO)c2ccccc2)C2CCCCCC2)cc1 (single isomer, unassigned) [Example 21] | 4.5 nM | >>6 mg/kg |  |
| CCOC(=O)c1cc2ccccc2n1Cc1ccc(C(C(=O)NC(CO)c2ccccc2)C2CCCCCC2)cc1 (single isomer, unassigned) [Example 22] | 23.5 nM |  |  |
| CCOC(=O)c1cc2cc(Cl)ccc2n1Cc1ccc(C(C(=O)NC(CO)c2ccccc2)C2CCCC2)cc1 (single isomer, unassigned) [Example 27] | 6.5 nM | >2 mg/kg |  |
| CCOC(=O)c1cc2cc(Cl)ccc2n1Cc1ccc(C(C(=O)NC(CO)c2ccccc2)C2CCCC2)cc1 (single isomer, unassigned) [Example 28] | 62.6 nM |  |  |
| O=C(NC(CO)c1ccccc1)C(c1ccc(Cn2ccc3ccc(Cl)cc32)cc1)C1CCCC1 (single isomer, unassigned) [Example 34] | 12.3 nM | 2 mg/kg |  |
| O=C(NC(CO)c1ccccc1)C(c1ccc(Cn2ccc3ccc(Cl)cc32)cc1)C1CCCC1 (single isomer, unassigned) [Example 35] | 308 nM |  |  |
| COc1cccc2c1ccn2Cc1ccc(C(C(=O)NC(CO)c2ccccc2)C2CCCC2)cc1 (single isomer, unassigned) [Example 37] | 31.1 nM | >2 mg/kg |  |
| COc1cccc2c1ccn2Cc1ccc(C(C(=O)NC(CO)c2ccccc2)C2CCCC2)cc1 (single isomer, unassigned) [Example 38] | 270 nM |  |  |
| Cc1c(C)n(Cc2ccc(C(C(=O)N[C@@H](CO)c3ccccc3)C3CCCCCC3)cc2)c2ccccc12 (stereo partly drawn) [Example 2, 2-Cycloheptyl-N-(2-hydroxy-1-(R)-phenylethyl)-2-[4-(2,3-dimethylindol-1-yl-methyl)phenyl]acetamide] |  |  | IC50 ([1]; Homo sapiens): 29.5 nM; ED50 ([2]; Rattus norvegicus, po, read-out: TG absorption ED50 or % inhibition mg/kg/p.o.): < 3 mg/kg; melting point: 163 °C |
